Assay results: publication PMC11365428 (The Journal of Biological Chemistry, 2024)
pEC50: −log10 of the molar value. Non-standard residues stand in square brackets, D forms with d. Residues, ends and D or L forms follow the SMILES beside them. pGlu = O=C1CC[C@@H](C(=O)O)N1

Assays:
Format in all cases: cell-based
apTKRPR-A 5A = apTKRPR-A 5A (Aplysia californica, UniProt A0AAU7SSZ1, S377A/S394A/T379A/T387A/T393A); assay: IP1 accumulation assay, Ser/Thr-to-Ala mutant apTKRPR-A 5A
Experimental: (§1) To express putative Aplysia receptors transiently in CHO-K1 cells, the cDNAs were subcloned into the pcDNA3.1(+) or pcDNA3.1(+)-FLAG (for ELISA experiments only, see “Cell surface expression analysis by ELISA” section) expression vector. On the day before transfection, the CHO-K1 cells were passaged into 60 mm diameter tissue culture–treated dishes, and the transfection experiments were performed when the cells were grown to 70 to 90% confluence. CHO-K1 cells were transfected with the cDNA plasmid constructs using Turbofect Transfection reagent (Thermo Fisher Scientific, R0531), following the manufacturer’s instructions. In brief, 4 μg of the putative receptor plasmids [in pcDNA3.1(+) or pcDNA3.1(+)-FLAG] were mixed with 400 μl of Opti-MEM (Gibco, 11058021), followed by the addition of 15 μl of TurboFect Transfection reagent and incubated at room temperature for 15 min. […]
(§2) The next day, transfected cells were trypsinized and reseeded in an opaque white 96-well half-area (Corning, 3688) or 384-well tissue culture–treated plates (Corning, 3570) at a density of 20,000 cells/well in F-12K and 10% FBS and incubated at 37 °C in a humidified incubator containing 5% CO2 overnight. On the third day, the activation of the putative receptors was detected by monitoring intracellular IP1 concentration using an IP-One Gq kit (Cisbio, 62IPAPEB) in Tecan Spark. […]

apTKRPR-B T391 = apTKRPR-B T391 (Aplysia californica, UniProt A0AAU7STS1, DEL392-447); assay: IP1 accumulation assay, C-terminal truncate apTKRPR-B T391
Experimental: as §1, §2

apTKRPR-B = target: T1, apTKRPR-B (Aplysia californica, UniProt A0AAU7STS1); assay: Receptor desensitization assay, protocol 1 (prolonged agonist exposure), apTKRPR-B; conditions: 10 μM, 2, 5, 10, 15, 30 and 60 min at 37 °C; fold increase over basal; n = 3
T1 sequence (A0AAU7STS1 1-447): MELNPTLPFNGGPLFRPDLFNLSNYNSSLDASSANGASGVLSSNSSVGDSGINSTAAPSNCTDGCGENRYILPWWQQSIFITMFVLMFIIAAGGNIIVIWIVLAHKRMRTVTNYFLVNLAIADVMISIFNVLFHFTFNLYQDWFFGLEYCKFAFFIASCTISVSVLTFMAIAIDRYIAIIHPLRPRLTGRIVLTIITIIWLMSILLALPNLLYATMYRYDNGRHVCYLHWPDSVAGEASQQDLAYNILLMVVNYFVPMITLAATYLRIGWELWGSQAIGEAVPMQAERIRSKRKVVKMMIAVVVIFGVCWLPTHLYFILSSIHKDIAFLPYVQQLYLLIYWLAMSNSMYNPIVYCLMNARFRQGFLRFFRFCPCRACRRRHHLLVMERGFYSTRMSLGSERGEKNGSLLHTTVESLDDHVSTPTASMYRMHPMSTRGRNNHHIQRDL
Experimental: Therefore, we adopted two protocols to study the desensitization of apTKRPRs. The protocols were performed using a procedure modified from previous work ([87], [88], [89]).
Protocol 1 ([87], [88]): Under continuous (prolonged) stimulation with an agonist, we examined agonist-induced desensitization by quantifying the rate of IP1 accumulation. Specifically, CHO-K1 cells transiently expressing pcDNA3.1-apTKRPRs were incubated in the absence or presence of 10 μM (saturating concentration) apTKRP-2b for the different duration (2, 5, 10, 15, 30, and 60 min) at 37 °C, and intracellular concentrations of IP1 accumulation were measured. Data are presented as fold increase over basal IP1 concentration (Fig. S10).

Sequence of apTKRPR-A 5A (A0AAU7SSZ1 entry or part of it S377A/T379A/T387A/T393A/S394A): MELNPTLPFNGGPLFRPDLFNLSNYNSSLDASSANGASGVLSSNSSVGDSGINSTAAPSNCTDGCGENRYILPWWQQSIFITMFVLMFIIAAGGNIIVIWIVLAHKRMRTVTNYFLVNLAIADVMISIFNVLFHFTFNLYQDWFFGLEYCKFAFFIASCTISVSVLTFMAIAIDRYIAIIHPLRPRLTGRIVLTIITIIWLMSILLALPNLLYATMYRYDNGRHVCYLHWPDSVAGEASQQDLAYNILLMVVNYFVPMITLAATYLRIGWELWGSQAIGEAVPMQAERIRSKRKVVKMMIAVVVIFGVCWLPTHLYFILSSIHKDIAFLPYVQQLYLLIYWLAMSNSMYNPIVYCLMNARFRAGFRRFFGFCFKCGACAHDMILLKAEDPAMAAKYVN

CC(C)C[C@H](NC(=O)[C@H](Cc1c[nH]cn1)NC(=O)[C@@H]1CCCN1C(=O)[C@@H]1CCC(=O)N1)C(=O)NCC(=O)N[C@@H](Cc1ccccc1)C(=O)N[C@@H](Cc1c[nH]cn1)C(=O)NCC(=O)N[C@@H](CO)C(=O)N[C@@H](CCCNC(=N)N)C(N)=O [apTKRP-2b] ([pGlu]PHLGFHGSR-NH2)
pEC50 (apTKRPR-A 5A): 7.23
pEC50 (apTKRPR-B T391): 7.67
time course of IP1 accumulation, apTKRPR-B (protocol 1) (apTKRPR-B): initially increased and then reached a plateau
